{
  "source": "patent US9499466B2",
  "about": "“Diene-based carboxylate anion and salt thereof, and polymerizable or curable composition thereof” (NIPPON SHOKUBAI CO., LTD., priority 2010, dated 2016)",
  "key": {"[1]": {"assay": "Adhesion of cured material to PET film (cross-cut method, JIS K 5600-5-6)", "conditions": "UV-cured film on surface-untreated PET film, cross-cut 10×10", "method": "Each compound shown in Table 11 was formed into a UV-cured film on a PET film in the same manner as in the pencil hardness test, except that the PET film used as a substrate was a surface-untreated polyethylene terephthalate (PET) film (Lumirror L-50T60, produced by Toray Industries, Inc.).\nThe adhesion of the UV-cured film to the PET film was evaluated based on JIS K 5600-5-6 (cross-cut method). The number of divided segments was 10×10 segments=100 segments. The adhesion was evaluated by the number of the segments which remain without peeling or damage in 100 segments."}, "[2]": {"assay": "Solubility test (dissolution method)", "conditions": "for Solubility (dissolution method) Water: mixed at 1%, 3%, 5%, 10%, 20% or more", "from_the_text": "The solubility evaluation by the dissolution method requires complicated operations and a large amount of test sample. Therefore, this test is not suitable for screening. However, the solubility of each compound can be more accurately evaluated."}},
  "data": [
    {"smiles": "C=CCOCC(=C)C(=O)[O-].C=CCOCC(=C)C(=O)[O-].C=CCOCC(=C)C(=O)[O-].[Al+3]", "note": "[Al(AMA)3]", "values": [
      {"measurement": "Adhesion (segments remaining without peeling or damage in 100 segments)", "setting": "[1]", "value": "100/100"}
    ]},
    {"smiles": "C=CCOCC(=C)C(=O)OCCOCCOC(=O)C(=C)COCC=C", "note": "[DEG-AMA, diethylene glycol di(α-allyloxymethyl acrylate), reference compound]", "values": [
      {"measurement": "Solubility (dissolution method) Acetone", "setting": "[2]", "value": "◯◯ (Become uniform and transparent at a compound concentration of 20% or more)"},
      {"measurement": "Solubility (dissolution method) Acetonitrile", "setting": "[2]", "value": "◯◯ (Become uniform and transparent at a compound concentration of 20% or more)"},
      {"measurement": "Solubility (dissolution method) Ethyl acetate", "setting": "[2]", "value": "◯◯ (Become uniform and transparent at a compound concentration of 20% or more)"},
      {"measurement": "Solubility (dissolution method) Methanol", "setting": "[2]", "value": "◯◯ (Become uniform and transparent at a compound concentration of 20% or more)"},
      {"measurement": "Solubility (dissolution method) THF", "setting": "[2]", "value": "◯◯ (Become uniform and transparent at a compound concentration of 20% or more)"},
      {"measurement": "Solubility (dissolution method) Toluene", "setting": "[2]", "value": "◯◯ (Become uniform and transparent at a compound concentration of 20% or more)"},
      {"measurement": "Solubility (dissolution method) Water", "setting": "[2]", "value": "X (Not become uniform and transparent even at a compound concentration of 1%)"},
      {"measurement": "Adhesion (segments remaining without peeling or damage in 100 segments)", "setting": "[1]", "value": "85/100"}
    ]},
    {"smiles": "C=CC(=O)OCCOCCOC(=O)C=C", "note": "[DEGDA, reference compound]", "values": [
      {"measurement": "Solubility (dissolution method) Acetone", "setting": "[2]", "value": "◯◯ (Become uniform and transparent at a compound concentration of 20% or more)"},
      {"measurement": "Solubility (dissolution method) Acetonitrile", "setting": "[2]", "value": "◯◯ (Become uniform and transparent at a compound concentration of 20% or more)"},
      {"measurement": "Solubility (dissolution method) Ethyl acetate", "setting": "[2]", "value": "◯◯ (Become uniform and transparent at a compound concentration of 20% or more)"},
      {"measurement": "Solubility (dissolution method) Methanol", "setting": "[2]", "value": "◯◯ (Become uniform and transparent at a compound concentration of 20% or more)"},
      {"measurement": "Solubility (dissolution method) THF", "setting": "[2]", "value": "◯◯ (Become uniform and transparent at a compound concentration of 20% or more)"},
      {"measurement": "Solubility (dissolution method) Toluene", "setting": "[2]", "value": "◯◯ (Become uniform and transparent at a compound concentration of 20% or more)"},
      {"measurement": "Solubility (dissolution method) Water", "setting": "[2]", "value": "X-Δ (Become uniform and transparent at a compound concentration of 1%)"},
      {"measurement": "Adhesion (segments remaining without peeling or damage in 100 segments)", "setting": "[1]", "value": "32/100"}
    ]},
    {"smiles": "C=CCOCC(=C)C(=O)OCC(C)(C)COC(=O)C(=C)COCC=C", "note": "[NPG-AMA, neopentyl glycol di(α-allyloxymethyl acrylate), reference compound]", "values": [
      {"measurement": "Solubility (dissolution method) Acetone", "setting": "[2]", "value": "◯◯ (Become uniform and transparent at a compound concentration of 20% or more)"},
      {"measurement": "Solubility (dissolution method) Acetonitrile", "setting": "[2]", "value": "◯◯ (Become uniform and transparent at a compound concentration of 20% or more)"},
      {"measurement": "Solubility (dissolution method) Ethyl acetate", "setting": "[2]", "value": "◯◯ (Become uniform and transparent at a compound concentration of 20% or more)"},
      {"measurement": "Solubility (dissolution method) Methanol", "setting": "[2]", "value": "◯◯ (Become uniform and transparent at a compound concentration of 20% or more)"},
      {"measurement": "Solubility (dissolution method) THF", "setting": "[2]", "value": "◯◯ (Become uniform and transparent at a compound concentration of 20% or more)"},
      {"measurement": "Solubility (dissolution method) Toluene", "setting": "[2]", "value": "◯◯ (Become uniform and transparent at a compound concentration of 20% or more)"},
      {"measurement": "Solubility (dissolution method) Water", "setting": "[2]", "value": "X (Not become uniform and transparent even at a compound concentration of 1%)"},
      {"measurement": "Adhesion (segments remaining without peeling or damage in 100 segments)", "setting": "[1]", "value": "72/100"}
    ]}
  ]
}
